Experimental data taken from patent US10925876B2, “Methods for using triazolo-pyrazinyl soluble guanylate cyclase activators in fibrotic disorders” (Merck Sharp & Dohme Corp., priority 2016, dated 2021).

Tests used:
[1] = IV Cassette PK Assay in rats; format: in vivo; conditions: rat, male Wistar-Han rats, plasma, read-out: Cassette PK T1/2 (hr), Imidazo-Pyrazinyl Analog (converted)
Protocol: The results were obtained using the following the procedure:
Adult male Wistar-Han rats were fasted overnight and administered a cassette IV dose of mixture of several compounds via a previously implanted catheter in the femoral vein. Animals were allowed access to food 4 h post dose. Blood samples were collected into EDTA-containing tubes at the following time points: 0.03, 0.13, 0.25, 0.5, 1, 2, 4, 8 h post-dose. Blood samples were stored on ice until plasma was harvested by centrifugation. Plasma was transferred to a 96-well plate and stored at −20° C. until analysis. Concentrations of each compound in rat plasma were determined by LC-MS/MS following protein precipitation.

sGC α1/β1 heterodimer = biological target: T1, sGC α1/β1 heterodimer (Homo sapiens, UniProt Q02108+Q02153); experiment: Cell-Based sGC Functional Assay (CASA Assay), cGMP generation in CHO-K1/sGC cells;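 also: reference Compound A is a published heme-dependent sGC activator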; conditions: maximum cGMP production of Compound A set to 100% activation, read-out: % Act. (percent activation relative to Compound A)
T1 construct: expressed in transfected cells
T1 sequence (Q02108 1-690): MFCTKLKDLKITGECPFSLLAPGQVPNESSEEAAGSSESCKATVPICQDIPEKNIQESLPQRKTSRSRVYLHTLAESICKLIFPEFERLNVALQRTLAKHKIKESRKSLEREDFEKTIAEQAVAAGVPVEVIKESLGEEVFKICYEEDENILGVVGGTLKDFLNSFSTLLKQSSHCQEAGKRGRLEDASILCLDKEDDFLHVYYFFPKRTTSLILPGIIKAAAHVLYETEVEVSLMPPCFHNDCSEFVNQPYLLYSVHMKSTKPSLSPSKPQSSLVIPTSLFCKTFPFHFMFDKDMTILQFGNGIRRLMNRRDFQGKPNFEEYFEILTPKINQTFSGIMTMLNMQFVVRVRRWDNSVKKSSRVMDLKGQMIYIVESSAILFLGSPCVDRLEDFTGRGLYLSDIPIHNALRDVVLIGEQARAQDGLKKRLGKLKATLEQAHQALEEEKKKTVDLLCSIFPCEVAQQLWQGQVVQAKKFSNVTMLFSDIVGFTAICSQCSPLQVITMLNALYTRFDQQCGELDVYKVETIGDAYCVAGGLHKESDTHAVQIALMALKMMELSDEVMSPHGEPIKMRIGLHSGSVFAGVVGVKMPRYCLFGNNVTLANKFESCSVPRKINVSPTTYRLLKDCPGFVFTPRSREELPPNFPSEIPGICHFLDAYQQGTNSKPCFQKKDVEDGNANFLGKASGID
T1 sequence (Q02153 1-619): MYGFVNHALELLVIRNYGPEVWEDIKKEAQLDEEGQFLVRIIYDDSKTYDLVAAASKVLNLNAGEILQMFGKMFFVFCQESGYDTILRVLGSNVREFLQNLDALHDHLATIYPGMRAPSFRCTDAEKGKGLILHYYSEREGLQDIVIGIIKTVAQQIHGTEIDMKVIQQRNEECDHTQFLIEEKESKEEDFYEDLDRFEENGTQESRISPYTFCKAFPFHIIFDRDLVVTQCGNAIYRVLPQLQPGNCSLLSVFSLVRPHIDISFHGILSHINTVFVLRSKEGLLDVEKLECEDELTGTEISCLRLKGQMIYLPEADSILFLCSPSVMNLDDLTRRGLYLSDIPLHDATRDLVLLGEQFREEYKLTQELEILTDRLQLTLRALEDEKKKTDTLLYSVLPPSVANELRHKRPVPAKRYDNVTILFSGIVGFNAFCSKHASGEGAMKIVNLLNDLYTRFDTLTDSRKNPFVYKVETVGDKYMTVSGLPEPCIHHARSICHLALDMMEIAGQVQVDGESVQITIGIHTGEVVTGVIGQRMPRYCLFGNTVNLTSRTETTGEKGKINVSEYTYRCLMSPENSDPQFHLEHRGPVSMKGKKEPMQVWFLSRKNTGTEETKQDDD
Procedure, shortened: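 Intracellular cGMP quantified by HTRF competition after 1 h, 37 °C compound exposure, with or without 1 μM DETA-NO, in stable CHO-K1/sGC α1/β1 cells (4×10^5/mL; buffer with 0.5 mM IBMX, 5 mM MgCl2, 10 mM HEPES, 0.05% BSA; 2.5% DMSO). Activation normalized to reference Compound A maximum; 4P fit.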

[2] = tested on: Spontaneously hypertensive rats (SHR); experiment: Acute Efficacy in Spontaneously Hypertensive Rats (SHR), telemetry blood pressure; format: in vivo, rat; conditions: single oral gavage
Procedure, shortened: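 Male SHR fitted with aortic telemetry transmitters and recovered 14 days; conscious blood pressure sampled 30 s every 10 min. Single oral gavage dose (vehicle 10% transcutol/20% Cremophor/70% water); hourly SBP change versus prior-day vehicle baseline, reported as maximum peak decrease.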

Row | Compound | half-life [1] | Emax (sGC α1/β1 heterodimer) | Maximum peak decrease of systolic blood pressure (SBP) in SHR, Cat. ([2]; P.O. 1 mpk) | Maximum peak decrease of systolic blood pressure (SBP) in SHR, Cat. ([2]; P.O. 0.3 mpk)
1 | Nc1nc(-c2cn3ccnc3c(CCCC(F)(F)F)n2)nc2c1C(c1ccc(C(F)F)cn1)(C1CC1)C(=O)N2 (centres unmarked) | 2.12 h |  |  | 
2 | CC1(c2ccc(F)cn2)C(=O)Nc2nc(-c3cn4ccnc4c(CCC(F)(F)C(F)(F)F)n3)nc(N)c21 (centres unmarked) | 1.41 h |  |  | 
3 | CC1(c2ccccc2)C(=O)Nc2nc(-c3cn4ncnc4c(CCCC(F)(F)F)n3)nc(O)c21 (centres unmarked) [Example 143B, 4-hydroxy-5-methyl-5-phenyl-2-(8-(4,4,4-trifluorobutyl)-[1,2,4]triazolo[1,5-a]pyrazin-6-yl)-5H-pyrrolo[2,3-d]pyrimidin-6(7H)-one] |  | 114% | B (Category B=SBP in SHRs 20-40 mmHg) | 
4 | CCCCc1nc(-c2nc(O)c3c(n2)NC(=O)C3(C)c2ccc(Cl)cn2)cn2ncnc12 (centres unmarked) [Example 160A, 2-(8-butyl-[1,2,4]triazolo[1,5-a]pyrazin-6-yl)-5-(5-chloropyridin-2-yl)-4-hydroxy-5-methyl-5H-pyrrolo[2,3-d]pyrimidin-6(7H)-one] |  | 96% |  | B (Category B=SBP in SHRs 20-40 mmHg)
5 | CC1(c2ccc(C(F)(F)F)cn2)C(=O)Nc2nc(-c3cn4ncnc4c(CCCC(F)(F)F)n3)nc(N)c21 (centres unmarked) [Example 25B, 4-amino-5-methyl-2-(8-(4,4,4-trifluorobutyl)-[1,2,4]triazolo[1,5-a]pyrazin-6-yl)-5-(5-(trifluoromethyl)pyridin-2-yl)-5H-pyrrolo[2,3-d]pyrimidin-6(7H)-one] |  | 131% |  | B (Category B=SBP in SHRs 20-40 mmHg)
6 | CC1(c2ccc(Cl)cc2)C(=O)Nc2nc(-c3cn4ncnc4c(CCC(F)(F)F)n3)nc(N)c21 (centres unmarked) [Example 76A, 4-amino-5-(4-chlorophenyl)-5-methyl-2-(8-(3,3,3-trifluoropropyl)-[1,2,4]triazolo[1,5-a]pyrazin-6-yl)-5H-pyrrolo[2,3-d]pyrimidin-6(7H)-one] |  | 120% |  | A (Category A=SBP in SHRs <20 mmHg)
7 | C[C@@]1(c2ccc(F)cc2)C(=O)Nc2nc(-c3cn4ncnc4c(Cc4ccc(F)cc4)n3)nc(N)c21 [Example 85B, (S)-4-amino-2-(8-(4-fluorobenzyl)-[1,2,4]triazolo[1,5-a]pyrazin-6-yl)-5-(4-fluorophenyl)-5-methyl-5H-pyrrolo[2,3-d]pyrimidin-6(7H)-one] |  | 106% |  | C (Category C=SBP in SHRs >40 mmHg)
8 | C[C@@]1(c2ccc(F)cc2)C(=O)Nc2nc(-c3cn4ncnc4c(CCC(F)(F)F)n3)nc(N)c21 [Example 74A, (S)-4-amino-5-(4-fluorophenyl)-5-methyl-2-(8-(3,3,3-trifluoropropyl)-[1,2,4]triazolo[1,5-a]pyrazin-6-yl)-5,7-dihydro-6H-pyrrolo[2,3-d]pyrimidin-6-one] |  | 110% | B (Category B=SBP in SHRs 20-40 mmHg) | 
